How the values were obtained:
[1] = Cell cycle arrest in human MCF7 cells assessed as M1 quadrant cells at 100 nM measured after 48 hrs by propidium iodide staining-based flow cytometry (reference value: 98.1%); format: functional
[2] = Cell cycle arrest in human MCF7 cells assessed as sub-diploid cells at 100 nM measured after 48 hrs by propidium iodide staining-based flow cytometry (reference value: 1.9%); format: functional

COC[C@H]1OC(=O)c2coc3c2[C@@]1(C)C1=C(C3=O)[C@@H]2CCC(=O)[C@@]2(C)C[C@H]1OC(C)=O
Activity [1]: 93.8% | Activity [2]: 6.2%
